Values after ≈ are worked out from the molar mass of the structure shown. Where a SMILES comes first, the peptide text is derived from it.
How the values were obtained:
C. albicans = assay type: cell-based, Candida albicans; settings: 48 h
Experimental: (§1) Two Candida albicans isolates were purchased from the ATCC (No. 24433 and 76615). The other yeast isolates were obtained from the collection of Fondazione Ca' Granda- Ospedale Maggiore Policlinico, Milano. The collection included C. albicans (7 isolates), C. glabrata (3 isolates), and C. krusei (3 isolates). Antifungal susceptibility testing was performed using the broth microdilution method according to the NCCLS M27-A guidelines (National Committee for Clinical Laboratory Standards. 1997, Reference method for broth dilution antifungal susceptibility testing of yeasts and approved standard NCCLS document M27-A. National Committee for Clinical Laboratory Standards, Wayne, Pa.). […] After 48 h of incubation, the plates were inspected for purity. A colony was taken from the agar plate and transferred into 5 mL Sabouraud-dextrose broth and incubated for 48 h at 35°C. Cells were centrifuged at 1,000× g for 10 min and the pellet was washed twice with distilled water. Cells were counted and suspended in RPMI 1640 medium buffered to pH 7.0 with 0.165 mol l^−1 morpholinepropanesulphonic acid (MOPS) buffer (Sigma) to obtain the two times test inoculum (1×10^3 to 5×10^3 CFU/mL). […] The MIC90, i.e. the minimum inhibitory concentrations endpoint were determined as 90% reduction in turbidity measured using a spectrophotometer (Titertek multiscan at 690 nm wave length).

C. glabrata = assay type: cell-based, Candida glabrata; settings: 48 h
Experimental: as §1

C. krusei = assay type: cell-based, Candida krusei; settings: 48 h
Experimental: as §1

[1] = test system: Acinetobacter baumani ATCC 19606; assay type: cell-based; settings: ATCC 19606, 18 h
Experimental: (§2) The strains used for the antimicrobial assays were the Gram-negative bacteria Acinetobacter baumani ATCC 19606, Escherichia coli D21, Pseudomonas aeruginosa ATCC 27853, and Pseudomonas syringae pv tabaci 1918NCPPB and the Gram-positive bacteria Bacillus megaterium Bm11, Staphylococcus aureus ATCC 25923, and Staphylococcus epidermidis ATCC 12228. Susceptibility testing was performed by adapting the microbroth dilution method outlined by the Clinical and Laboratory Standards Institute, using sterile 96-well plates (Falcon NJ, USA). The bacterial growth was aseptically measured by absorbance at 590 nm with a spectrophotometer (UV-1700 Pharma Spec Shimadzu, Tokyo, Japan). Afterwards, aliquots (50 µl) of bacteria in mid-log phase at a concentration of 2×10^6 colony-forming units (CFU)/mL in culture medium (Mueller-Hinton, MH) were added to 50 µl of MH broth containing the peptide in serial 2-fold dilutions ranging from 1.56 to 100 µM. Inhibition of microbial growth was determined by measuring the absorbance at 590 nm, after an incubation of 18 h at 37°C with a microplate reader (Infinite M200; Tecan, Salzburg, Austria).

Bacillus megaterium Bm11 = assay type: cell-based; settings: Bacillus Bm11, 18 h
Experimental: as §2

Escherichia coli D21 = assay type: cell-based; settings: D21, 18 h
Experimental: as §2

[2] = test system: Pseudomonas aeruginosa ATCC 27853; assay type: cell-based; settings: ATCC 27853, 18 h
Experimental: as §2

[3] = test system: Pseudomonas syringae pv tabaci 1918NCPPB; assay type: cell-based; settings: 18 h
Experimental: as §2

[4] = test system: Staphylococcus aureus ATCC 25923; assay type: cell-based; settings: ATCC 25923, 18 h
Experimental: as §2

[5] = test system: Staphylococcus epidermidis ATCC 12228; assay type: cell-based; settings: ATCC 12228, 18 h
Experimental: as §2

[6] = test system: HaCaT keratinocyte cell line; experiment: Cytotoxic activity, MTT colorimetric method; assay type: cell-based, human; settings: 24 h; for cell death / killing of human keratinocytes: highest peptide concentration used (100 µM)
Experimental: Effects on viability was tested in the immortalised keratinocyte cell line HaCaT using the [3(4,5-dimethylthiazol-2yl)2,5-diphenyltetrazolium bromide] (MTT) colorimetric method in which the intensity of the dye is proportional to the number of viable cells. MTT is a tetrazolium salt which is reduced to a colored formazan product by mitochondrial reductases present only in metabolically active cells. Cells were cultured in Dulbecco's modified Eagle's medium (DMEM; Sigma) supplemented with 10% heat inactivated fetal bovine serum, glutamine (4 mM) and gentamicin. Afterwards, cells were plated in triplicate wells of a microtiter plate, at 4×10^4 cells/well in DMEM supplemented with 2% serum without antibiotic. After overnight incubation at 37°C in a 5% CO2 atmosphere, the medium was replaced with […] fresh DMEM supplemented with the peptides at different concentrations. The plate was incubated for 24 h at 37°C in a 5% CO2 atmosphere. Then, DMEM was removed and replaced with Hank's medium (136 mM NaCl; 4.2 mM Na2HPO4; 4.4 mM KH2PO4; 5.4 mM KCl; 4.1 mM NaHCO3, pH 7.2, supplemented with 20 mM D-glucose) containing 0.5 mg/ml MTT. After 4 h incubation, the formazan crystals were dissolved by adding 100 µl of acidified isopropanol and absorption of each well was measured using a microplate reader (Infinite M200; Tecan, Salzburg, Austria) at 570 nm. Cell viability was e expressed as percentage of viability in control cells (cells not treated with peptide).
Figure 1 Effects of the synthetic melanocortins on viability of HaCat cells. Cells were plated in wells of a microtiter plate, at 4×10^4 cells/well in DMEM supplemented with 2% serum without antibiotic. After overnight incubation at 37°C in a 5% CO2 atmosphere, the medium was replaced with 100 µl fresh DMEM supplemented with the peptides at different concentrations. […] Cell viability is expressed as percentage of viability in control cells (cells not treated with the peptide).

[7] = test system: Candida strains (C. albicans, C. glabrata, C. krusei); experiment: Anti-Candida assay, overall result in words; assay type: cell-based, Candida spp; settings: standard culture conditions, broth culture medium
Experimental: as §1

Candida = test system: Candida; parameters: method as in PMID 15743181; settings: cited from earlier work

Compound	MIC 90 (C. albicans)	MIC 90 (C. glabrata)	MIC 90 (C. krusei)	MIC 100 [1]	MIC 100 (Bacillus megaterium Bm11)	MIC 100 (Escherichia coli D21)	MIC 100 [2]	MIC 100 [3]	MIC 100 [4]	MIC 100 [5]	cell death / killing of human keratinocytes [6]	antimicrobial / anti-Candida activity (in words) [7]	killing of Candida (in words) (Candida; in growth medium ref 7)	Candida organisms killed (Candida; organisms incubated in distilled water ref 7)	toxic effects on human keratinocytes (in words) ([6]; at 50–100 µM concentrations)	toxic activity on human keratinocytes (in words) ([6]; up to a concentration of 12.5 µM)
CC(C)[C@H](NC(=O)[C@H](Cc1ccccc1)NC(=O)[C@H](CCCCN)NC(=O)CNC(=O)[C@H](Cc1c[nH]c2ccccc12)NC(=O)[C@H](CCCNC(=N)N)NC(=O)[C@@H](Cc1ccc2ccccc2c1)NC(=O)[C@@H](N)Cc1c[nH]cn1)C(N)=O [DNal, H-His-D(2′)Nal-Arg-Trp-Gly-Lys-Phe-Val-NH2, reference compound] (HELM PEPTIDE1{H.[O=C([C@@H](Cc1ccc2ccccc2c1)N[*:1])[*:2]].R.W.G.K.F.V.[am]}$$$$V2.0)	>100 µM	>100 µM	>100 µM	>100 µM	6 µM (≈ 6.75 µg/mL)	>100 µM	100 µM (≈ 113 µg/mL)	>100 µM	>100 µM	50 µM (≈ 56.3 µg/mL)	50–100%	did not have substantial antimicrobial activity	did not kill	100%	–	–
CC(C)[C@H](NC(=O)[C@H](Cc1ccccc1)NC(=O)[C@H](CCCCN)NC(=O)[C@@H](NC(=O)[C@H](Cc1c[nH]c2ccccc12)NC(=O)[C@H](CCCNC(=N)N)NC(=O)[C@@H](Cc1ccc2ccccc2c1)NC(=O)[C@@H](N)Cc1c[nH]cn1)C(C)(C)C)C(N)=O [Peptide 3, H-His-D(2′)Nal-Arg-Trp-tBuGly-Lys-Phe-Val-NH2] (HELM PEPTIDE1{H.[O=C([C@@H](Cc1ccc2ccccc2c1)N[*:1])[*:2]].R.W.[CC(C)(C)[C@H](N[*:1])C(=O)[*:2]].K.F.V.[am]}$$$$V2.0)	>100 µM	>100 µM	>100 µM	100 µM (≈ 118 µg/mL)	6.25 µM (≈ 7.38 µg/mL)	50 µM (≈ 59.1 µg/mL)	50 µM (≈ 59.1 µg/mL)	>100 µM	>100 µM	50 µM (≈ 59.1 µg/mL)	less than 30%	inactive	–	–	–	–
CC(C)[C@H](NC(=O)[C@H](Cc1ccccc1)NC(=O)[C@H](CCCCN)NC(=O)[C@H](CC1CCCCC1)NC(=O)[C@H](Cc1c[nH]c2ccccc12)NC(=O)[C@H](CCCNC(=N)N)NC(=O)[C@@H](Cc1ccc2ccccc2c1)NC(=O)[C@@H](N)Cc1c[nH]cn1)C(N)=O [Peptide 10, H-His-D(2′)Nal-Arg-Trp-Cha-Lys-Phe-Val-NH2] (HELM PEPTIDE1{H.[O=C([C@@H](Cc1ccc2ccccc2c1)N[*:1])[*:2]].R.W.[Cha].K.F.V.[am]}$$$$V2.0)	–	>100 µM	–	12.5 µM (≈ 15.3 µg/mL)	3.125 µM (≈ 3.82 µg/mL)	6.25 µM (≈ 7.63 µg/mL)	25 µM (≈ 30.5 µg/mL)	25 µM (≈ 30.5 µg/mL)	12.5 µM (≈ 15.3 µg/mL)	6.25 µM (≈ 7.63 µg/mL)	–	potency similar to that of peptide 8	–	–	exerted toxic effects	completely devoid of toxic activity
CC(C)[C@H](NC(=O)[C@H](Cc1ccccc1)NC(=O)[C@H](CCCCN)NC(=O)C1(NC(=O)[C@H](Cc2c[nH]c3ccccc23)NC(=O)[C@H](CCCNC(=N)N)NC(=O)[C@@H](Cc2ccc3ccccc3c2)NC(=O)[C@@H](N)Cc2c[nH]cn2)CC1)C(N)=O [Peptide 4, H-His-D(2′)Nal-Arg-Trp-Ac3c-Lys-Phe-Val-NH2] (HELM PEPTIDE1{H.[O=C([C@@H](Cc1ccc2ccccc2c1)N[*:1])[*:2]].R.W.[O=C(C1(N[*:1])CC1)[*:2]].K.F.V.[am]}$$$$V2.0)	>100 µM	>100 µM	>100 µM	50 µM (≈ 57.6 µg/mL)	6.25 µM (≈ 7.2 µg/mL)	100 µM (≈ 115 µg/mL)	50 µM (≈ 57.6 µg/mL)	>100 µM	100 µM (≈ 115 µg/mL)	25 µM (≈ 28.8 µg/mL)	less than 30%	inactive	–	–	–	–
CC(C)[C@H](NC(=O)[C@H](Cc1ccccc1)NC(=O)[C@H](CCCCN)NC(=O)[C@H](Cc1ccccc1)NC(=O)[C@H](Cc1c[nH]c2ccccc12)NC(=O)[C@H](CCCNC(=N)N)NC(=O)[C@@H](Cc1ccc2ccccc2c1)NC(=O)[C@@H](N)Cc1c[nH]cn1)C(N)=O [Peptide 9, H-His-D(2′)Nal-Arg-Trp-Phe-Lys-Phe-Val-NH2] (HELM PEPTIDE1{H.[O=C([C@@H](Cc1ccc2ccccc2c1)N[*:1])[*:2]].R.W.F.K.F.V.[am]}$$$$V2.0)	–	>100 µM	>100 µM	25 µM (≈ 30.4 µg/mL)	3.125 µM (≈ 3.8 µg/mL)	50 µM (≈ 60.8 µg/mL)	25 µM (≈ 30.4 µg/mL)	100 µM (≈ 122 µg/mL)	50 µM (≈ 60.8 µg/mL)	12.5 µM (≈ 15.2 µg/mL)	less than 30%	decreased activity	–	–	–	–

Reference: publication PMC3634028, “Novel α-MSH Peptide Analogues with Broad Spectrum Antimicrobial Activity” (PLoS ONE, 2013)
